Experimental data reported in PubChem BioAssay (NCI).
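GI50 is the concentration that inhibits growth by half. The concentration for full growth arrest is given as TGI.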

Tests used:
Test in all cases: NCI tumour cell line growth inhibition, 384-well format
[1] = system: M14 melanoma
[2] = system: MALME-3M melanoma
[3] = system: SK-MEL-5 melanoma
[4] = system: NCI-H23 lung
[5] = system: U251 glioblastoma
[6] = system: SF-539 CNS
[7] = system: NCI-H460 NSCLC
[8] = system: SN12C renal
[9] = system: HT29 colon
[10] = system: SR leukemia
[11] = system: BT-549 breast
[12] = system: UACC-62 melanoma
[13] = system: 786-0 renal
[14] = system: ACHN renal
[15] = system: NCI-H322M lung
[16] = system: HCC-2998 colon
[17] = system: CAKI-1 renal
[18] = system: HL-60(TB) leukemia
[19] = system: KM12 colon
[20] = system: SK-OV-3 ovarian
[21] = system: SK-MEL-2 melanoma
[22] = system: HS 578T breast
[23] = system: IGROV1 ovarian
[24] = system: TK-10 renal
[25] = system: SNB-75 CNS
[26] = system: K-562 leukemia
[27] = system: OVCAR-8 ovarian
[28] = system: RPMI-8226 leukemia
[29] = system: MDA-MB-231 breast
[30] = system: SK-MEL-28 melanoma
[31] = system: MOLT-4 leukemia
[32] = system: NCI-H226 lung
[33] = system: PC-3 prostate
[34] = system: RXF 393 renal
[35] = system: SNB-19 CNS
[36] = system: SF-268 CNS
[37] = system: MCF7 breast
[38] = system: NCI/ADR-RES ovarian
[39] = system: UO-31 renal
[40] = system: HOP-92 NSCLC
[41] = system: SF-295 CNS
[42] = system: NCI-H522 lung
[43] = system: OVCAR-3 ovarian
[44] = system: MDA-MB-435 melanoma
[45] = system: SW-620 colon
[46] = system: OVCAR-5 ovarian
[47] = system: HCT-116 colon

SMILES: O=C(Nc1cccc(NS(=O)(=O)c2ccc(F)cc2)c1)c1ccc(-c2ccccc2)cc1
- GI50 [1]: 6.38 µM
- TGI [1]: 19.5 µM
- GI50 [2]: 4.23 µM
- TGI [2]: 17.4 µM
- GI50 [3]: 2.56 µM
- TGI [3]: 7.94 µM
- GI50 [4]: 2.53 µM
- TGI [4]: 8.44 µM
- GI50 [5]: 2.35 µM
- TGI [5]: 5.72 µM
- GI50 [6]: 3.17 µM
- TGI [6]: 11.1 µM
- GI50 [7]: 3.23 µM
- TGI [7]: 10.4 µM
- GI50 [8]: 3.45 µM
- TGI [8]: 11.8 µM
- GI50 [9]: 4.49 µM
- TGI [9]: 21.5 µM
- GI50 [10]: 1.76 µM
- TGI [10]: 3.31 µM
- GI50 [11]: 2.89 µM
- TGI [11]: 8.64 µM
- GI50 [12]: 3.38 µM
- TGI [12]: 15 µM
- GI50 [13]: 2.95 µM
- TGI [13]: 10.6 µM
- GI50 [14]: 4.13 µM
- TGI [14]: 21.6 µM
- GI50 [15]: 3.9 µM
- TGI [15]: 19.7 µM
- GI50 [16]: 6.02 µM
- TGI [16]: 21.2 µM
- GI50 [17]: 5.85 µM
- TGI [17]: 26.6 µM
- GI50 [18]: 1.73 µM
- TGI [18]: 3.46 µM
- GI50 [19]: 3.62 µM
- TGI [19]: 13.2 µM
- GI50 [20]: 5.43 µM
- TGI [20]: 28.3 µM
- GI50 [21]: 12.9 µM
- TGI [21]: 26.3 µM
- GI50 [22]: 3.7 µM
- TGI [22]: 15.3 µM
- GI50 [23]: 10.4 µM
- TGI [23]: 37.1 µM
- GI50 [24]: 4.17 µM
- TGI [24]: 19.2 µM
- GI50 [25]: 5.65 µM
- TGI [25]: 25.1 µM
- GI50 [26]: 2.6 µM
- TGI [26]: 11.2 µM
- GI50 [27]: 3.57 µM
- TGI [27]: 13.3 µM
- GI50 [28]: 1.47 µM
- TGI [28]: 3.75 µM
- GI50 [29]: 3.72 µM
- TGI [29]: 18.3 µM
- GI50 [30]: 17.1 µM
- TGI [30]: 38.5 µM
- GI50 [31]: 1.81 µM
- TGI [31]: 3.64 µM
- GI50 [32]: 5.91 µM
- TGI [32]: 20.7 µM
- GI50 [33]: 3.36 µM
- TGI [33]: 11.5 µM
- GI50 [34]: 2.02 µM
- TGI [34]: 4.91 µM
- GI50 [35]: 4.04 µM
- TGI [35]: 21.7 µM
- GI50 [36]: 3.93 µM
- TGI [36]: 17.2 µM
- GI50 [37]: 4.23 µM
- TGI [37]: 14.4 µM
- GI50 [38]: 2.55 µM
- TGI [38]: 9.38 µM
- GI50 [39]: 3.59 µM
- TGI [39]: 13.5 µM
- GI50 [40]: 2.94 µM
- TGI [40]: 8.32 µM
- GI50 [41]: 2.79 µM
- TGI [41]: 10.1 µM
- GI50 [42]: 3.6 µM
- TGI [42]: 15.2 µM
- GI50 [43]: 7.05 µM
- TGI [43]: 20 µM
- GI50 [44]: 4.59 µM
- TGI [44]: 17.1 µM
- GI50 [45]: 4.54 µM
- TGI [45]: 16.2 µM
- GI50 [46]: 7.57 µM
- TGI [46]: 26.7 µM
- GI50 [47]: 3.54 µM
- TGI [47]: 12.6 µM
